Test: mn = molality of the nth substance listed, in mol/kg
Conditions: Liquid, Capillary tube (Ostwald / Ubbelohde) method

[I-].[Li+] [lithium iodide] + O
viscosity [mPa·s]
Conditions	100 kPa	10000 kPa	40000 kPa
293.15 K, m1 = 0.08	1.009	1.005	0.9978
293.15 K, m1 = 0.16	1.015	1.012	1.004
293.15 K, m1 = 0.2832	1.025	1.02	1.014
293.15 K, m1 = 0.6621	1.05	1.047	1.039
293.15 K, m1 = 1.605	1.122	1.118	1.112
293.15 K, m1 = 2.16	1.158	1.154	1.147
293.15 K, m1 = 3.089	1.227	1.224	1.215
298.15 K, m1 = 0.08	0.8961	0.8946	0.892
298.15 K, m1 = 0.16	0.9025	0.9012	0.8979
298.15 K, m1 = 0.2832	0.9114	0.9098	0.907
298.15 K, m1 = 0.6621	0.9363	0.9351	0.9225
298.15 K, m1 = 1.605	1.002	1.001	0.9979
298.15 K, m1 = 2.16	1.04	1.038	1.035
298.15 K, m1 = 3.089	1.108	1.101	1.097
304.75 K, m1 = 0.6621	0.8141	0.8149	0.8164
304.77 K, m1 = 0.08	0.7764	0.777	0.7779
307.45 K, m1 = 3.089	0.9235	0.925	0.9291
308.74 K, m1 = 0.16	0.7215	0.7221	0.7256
310.64 K, m1 = 0.2832	0.7028	0.7047	0.7074
311.74 K, m1 = 1.605	0.7684	0.77	0.7748
312.45 K, m1 = 2.16	0.7939	0.7957	0.8016
322.51 K, m1 = 0.2832	0.5682	0.5704	0.5768
323.45 K, m1 = 1.605	0.6301	0.6327	0.6406
323.74 K, m1 = 0.16	0.5504	0.5527	0.5599
324.02 K, m1 = 2.16	0.6554	0.6584	0.6666
324.23 K, m1 = 0.6621	0.5733	0.5758	0.5829
324.62 K, m1 = 0.08	0.5385	0.5407	0.5475
325.64 K, m1 = 3.089	0.6865	0.6896	0.6986
341.69 K, m1 = 0.08	0.4164	0.4192	0.4252
343.64 K, m1 = 0.6621	0.4337	0.4368	0.4458
344.06 K, m1 = 0.16	0.4065	0.4093	0.4177
344.66 K, m1 = 1.605	0.4673	0.4708	0.4804
345.43 K, m1 = 2.16	0.4884	0.4912	0.5015
347.42 K, m1 = 0.2832	0.394	0.3976	0.4052
348.24 K, m1 = 3.089	0.5101	0.5144	0.5255
363.94 K, m1 = 3.089	0.4275	0.4317	0.4435
364.95 K, m1 = 2.16	0.3905	0.3944	0.4048
367.05 K, m1 = 0.2832	0.3119	0.3142	0.3227
368.75 K, m1 = 1.605	0.3544	0.358	0.3678
368.79 K, m1 = 0.16	0.3014	0.3044	0.3128
369.35 K, m1 = 0.08	0.2968	0.2996	0.3079
369.49 K, m1 = 0.6621	0.3189	0.3222	0.3313
396.7 K, m1 = 0.08	–	0.2301	0.2381
397.72 K, m1 = 2.16	–	0.2921	0.3023
397.82 K, m1 = 0.16	–	0.2304	0.2385
398.32 K, m1 = 0.2832	–	0.2331	0.2414
398.72 K, m1 = 3.089	–	0.3165	0.3278
398.94 K, m1 = 1.605	–	0.2713	0.2809
399.03 K, m1 = 0.6621	–	0.2447	0.2534
421.45 K, m1 = 0.6621	–	0.206	0.2139
422.12 K, m1 = 0.08	–	0.1885	0.1959
422.41 K, m1 = 3.089	–	0.2666	0.277
422.47 K, m1 = 1.605	–	0.2275	0.2363
424.14 K, m1 = 0.2832	–	0.1913	0.1988
424.41 K, m1 = 2.16	–	0.24	0.2494
424.49 K, m1 = 0.16	–	0.1874	0.1947
444.25 K, m1 = 2.16	–	0.2119	0.2206
447.54 K, m1 = 3.089	–	0.2284	0.2383
447.94 K, m1 = 1.605	–	0.1945	0.2029
448.75 K, m1 = 0.16	–	0.1602	0.1674
449.02 K, m1 = 0.08	–	0.1581	0.1648
449.06 K, m1 = 0.6621	–	0.1725	0.1802
449.71 K, m1 = 0.2832	–	0.1622	0.1696
472.45 K, m1 = 0.08	–	0.1387	0.1452
472.92 K, m1 = 0.2832	–	0.1429	0.1501
473.06 K, m1 = 1.605	–	0.1699	0.1784
473.07 K, m1 = 2.16	–	0.1815	0.19
473.46 K, m1 = 0.16	–	0.1397	0.1467
473.71 K, m1 = 3.089	–	0.1992	0.2091
474.98 K, m1 = 0.6621	–	0.1497	0.1572
522.7 K, m1 = 0.16	–	0.1109	0.1182
523.42 K, m1 = 3.089	–	0.1603	0.1711
523.72 K, m1 = 0.08	–	0.1089	0.1163
524.07 K, m1 = 0.2832	–	0.1123	0.1199
524.86 K, m1 = 1.605	–	0.1344	0.1433
525.42 K, m1 = 0.6621	–	0.1185	0.1266
525.49 K, m1 = 2.16	–	0.1435	0.1531
